According to US20210318274A1, “METHODS FOR EVALUATING LIVER FUNCTION” (HepQuant, LLC, priority 2020, published 2021):
Where two headings read alike, the source gives them in different places.

Assays:
[1] = Antipyrine clearance by Child-Pugh and DSI; type: in vivo, human
Excerpt: Antipyrine is an analgesic and antipyretic. […] Antipyrine may be used in testing the effects of other drugs or diseases on drug-metabolizing enzymes in the liver, such as various cytochrome p450 (CYP) enzymes, for example, as shown in Table 22.

[2] = cited from earlier work
[3] = set-up: species or system human; settings: in vivo
Experimental: In some embodiments, the distinguishable compound is galactose. Galactose elimination capacity (GEC) has been used as an index of residual hepatic function. Galactose in the GEC test typically is administered intravenously at a dose of […] and venous samples taken every 5 min between 20 and 60 minutes. The clearance of galactose is decreased in individuals with chronic liver disease and cirrhosis. The fact that this carbohydrate has a high extraction ratio, however, makes the metabolism of galactose dependent on liver blood flow and hepatic functional mass. […] The carbohydrate galactose is metabolized almost exclusively in the liver, and the elimination rate at blood concentrations high enough to yield near-saturated enzymatic conversion, the GEC is used as a quantitative measure of the metabolic capacity of the liver. One study has shown that among patients with a newly-diagnosed cirrhosis and a decreased GEC, the GEC was a strong predictor of mortality. (Jepsen et al, 2009, The galactose elimination capacity and mortality in 781 Danish patients with newly-diagnosed liver cirrhosis: a cohort study. BMC Gastroenterol. 2009, 9:50).

[4] = individuals with chronic liver disease and cirrhosis; cited from earlier work
[5] = Lidocaine MEGX 15 min concentration by Child-Pugh and DSI; type: in vivo, human; settings: by DSI score group (5-15, 15-25, 25-35, 35-45)
Experimental: Lidocaine elimination and MEGX (monoethylglycinexylidide) formation after oral lidocaine administration may be used as a quantitative assessment of liver function. […] MEGX 15 minute concentrations.

[6] = in vivo
Excerpt: The present inventors analyzed the relationship of DSI to pharmacokinetic parameters of various classes of drugs.
Methionine is an essential amino acid in humans, and is the substrate for other amino acids such as cysteine or taurine. Methionine also may be used to prevent liver toxicity in acetaminophen (Tylenol) poisoning, to increase acidity of urine, treat liver disorders, or improve wound healing. […] The methionine breath test may involve orally administered ^13C-methionine to detect hepatic mitochondrial dysfunction by evaluating level of ^13CO2 exhalation. ^13C methionine breath test may be used to monitor hepatic mitochondrial oxidation and drug-related mitochondrial toxicity in vivo, for example, to detect antiretroviral drug-related mitochondrial toxicity.

[7] = Obeticholic acid plasma exposure versus DSI, clinical trial in NASH; type: in vivo, human; settings: NASH patients, fibrosis F1 to compensated F4
Excerpt: Obeticholic acid (OCA) is a Farnesoid X Receptor (FXR) agonist, bile acid analog of chenodeoxycholic acid that is FDA approved for treatment of primary biliary cholangitis, and is being studied for use in treating other hepatic diseases and conditions. […] The circles are observed data; red lines are linear regression fit. OCA=Obeticholic acid. […] DSI correlates with OCA PK both at baseline (day 1) and at day 85.

Cc1cc(=O)n(-c2ccccc2)n1C [Antipyrine]
Average antipyrine clearance ([1]; Child-Pugh class B versus CP A5 and CP A6 patients): decreased average antipyrine clearance
Average antipyrine clearance ([1]; by DSI score group (5-15, 15-25, 25-35, 35-45)): reduced average antipyrine clearance
Average antipyrine clearance ([1]; by DSI score group (5-15, 15-25, 25-35, 35-45), listed as antipyrine): lowest PK average values
First pass hepatic extraction (qualitative) ([2]; in vivo): low first pass hepatic metabolism

O=C[C@H](O)[C@@H](O)[C@@H](O)[C@H](O)CO [Galactose]
Average galactose elimination capacity [3]: decreased average galactose elimination capacity
Clearance of galactose [4]: decreased
First pass hepatic extraction (qualitative) ([2]; substrate characterisation): relatively high first pass hepatic extraction

CCN(CC)CC(=O)Nc1c(C)cccc1C [Lidocaine]
Average MEGX 15 min concentration following lidocaine [5]: lowest PK average values
First pass hepatic extraction (qualitative) ([2]; substrate characterisation): relatively high first pass hepatic extraction

CSCC[C@H](N)C(=O)O [Methionine]
Average ^13CO2 exhalation score (methionine breath test) ([6]; human): reduced average ^13CO2 exhalation score
Average ^13CO2 exhalation score (methionine breath test) [6]: lowest PK average values
Average methionine breath test value [6]: decreased average methionine breath test values
First pass hepatic extraction (qualitative) ([2]; substrate characterisation): relatively low first pass hepatic extraction

CC[C@H]1[C@@H](O)[C@@H]2[C@H](CC[C@]3(C)[C@@H]([C@H](C)CCC(=O)O)CC[C@@H]23)[C@@]2(C)CC[C@@H](O)C[C@@H]12 [Obeticholic acid, 6alpha-ethyl-chenodeoxycholic acid]
Plasma exposure in relation to DSI [7]: related to DSI measurement
